From patent US9593149B2, “Amylin and calcitonin receptor agonist” (Novo Nordisk A/S, priority 2014, dated 2017)
Numbered stars: 1 amine (or outer) side, 2 acyl side, 3 side chain; on linkers, the order of the positions; unused ones are H or OH. Peptide text beside a SMILES is read from it. * marks the point of attachment. C18 diacid = O=C(O)CCCCCCCCCCCCCCCCC(=O)*; γGlu = O=C(O)[C@H](CCC(=O)[*:2])N[*:1]

What was measured:
[1] = Assay (IV) determination of solubility; type: physicochemical
Description: Assay (IV)—Determination of Solubility
The mimylin peptide was dissolved in water at ˜500 nmol/ml and mixed 1:1 with a series of buffers (100 mM glycylglycine pH 3.0, 100 mM glycylglycine pH 4.0, 100 mM glycylglycine pH 5.0, 100 mM bistrispropane pH 6.0, 100 mM bistrispropane pH 6.5, 100 mM bistrispropane pH 7.0, 100 mM bistrispropane pH 7.5, 100 mM bistrispropane pH 8.0).

[2] = Assay (IX) pK, T½ in mini-pig; type: in vivo, Göttingen mini-pigs; conditions: i.v.
Description: Assay (IX)—pK—Determination of T½ in Mini-Pig
Pharmacokinetic (PK) studies in Göttingen mini-pigs were conducted in order to determine the T½ of the mimylin compound according to the Examples as indicated after i.v. administration.
T½ values of the amylin analogues of the invention is determined by pharmacokinetic studies in female Göttingen mini-pigs from Ellegaard Göttingen Minipigs ApS and the principles of laboratory animal care are followed.
An acclimatisation period of approximately 6-10 days was allowed before the animals entered the study. At start of the acclimatisation period the mini-pigs were about 5 to 12 months old and in the weight range of 15-35 kg. The mini-pigs had two central venous catheters inserted which were used for blood sampling.
The studies were conducted in an animal room which was illuminated to give a cycle of approximately 12 hours light and 12 hours darkness. The animals were housed individually. The animals had free access to domestic quality drinking water during the study, and no food restrictions applied for PK studies. The animals were weighed on arrival and on the days of dosing.
In the present studies the test substances were administered intravenously in approximately 5 nmol/kg dose. The animals received a single intravenous injection in one central venous catheter and blood sampling was performed from the other catheter, where possible. Each test substance was given to typically three but in some cases two or four animals.
A full plasma concentration-time profile, employing 12-16 sampling points, was obtained from each animal. In example blood samples were collected according to the following schedule:
After Intravenous Administration:
Pre-dose (0), 0.5, 1, 2, 4, 6, 8, 12, 24, 48, 72, 96, 120, 168 and 240 hours after injection. In some cases also additional blood samples up to 288 hours post injection were taken.
At each sampling time, 0.5 to 2 ml of blood was drawn from each animal. The blood samples were taken via the central venous catheter.
The 0.8 mL blood samples were collected into EDTA test tubes (8 mM EDTA). Blood samples were kept on ice for max 20 min. before centrifugation. Plasma was separated using centrifugation (i.e. at 4° C., 10 min., 2000G) and was immediately transferred to Micronic tubes on dry ice. Approximately 200 μl plasma was transferred to each Micronic tube. The plasma was stored at −20° C. until assayed. The plasma samples were assayed for the content of compound using LCMS.
The plasma concentration-time profiles were analysed by a non-compartmental pharmacokinetic analysis (NCA) using Phoenix WinNonlin 6.3 (Pharsight Inc., Mountain View, Calif., USA). NCA was performed using the individual plasma concentration-time profiles from each animal. T½ is the terminal half-life=In2/λz and was determined from λz, the first order rate constant associated with the terminal (log-linear) portion of the curve, estimated by linear regression of time vs. log concentration.
MS-Method for Amylin and Mimylin Quantification
40 μl plasma is diluted with 120 μl 66.67% EtOH+1% HCOOH and mixed. Centrifuged for 20 min. at 13000 rpm, 4° C. The supernatant is analyzed by an LC-MS method on a Sciex API 3000 and quantitated with a standard made up in plasma

[3] = Assay (XV) subcutaneous PK in LYD-pigs, co-formulated or co-dosed with liraglutide; type: in vivo; conditions: for Cmax/D / T½ (hous): LYD-pigs s.c.
Description: The studies were performed in female LYD pigs of SPF origin delivered from Lars Jonson, Hillerødvej 70, Lynge.
Before the animals arrived, the animal rooms and pens were cleaned and disinfected with Virkon S. During the study, the animal rooms were cleaned and washed regularly.
The pigs were group housed during the acclimatisation period. The pigs were fitted with a central venous catheter while under anaesthesia and after the single housed after catheterization in pens ≧3.1 m^2 with straw as bedding. The temperature in the rooms was set at 20−23° C. and the relative humidity to 30-70%. The rooms were illuminated to give a cycle of 12 hours light and 12 hours darkness. Light was on from 07.00 to 19.00 h.
The formulations was prepared similarly and filled in cartridges in all cases.
The animals were dosed subcutaneously as follows.
The s.c. dosing was performed in 4 mm depth, in a site of injection which was secured on beforehand by ultrasound to avoid muscular tissue or heavy vascularization. Dosing was made using NovoPen®4 and needle Novofine 28 G and a needle stopper to ensure 4 mm depth of injection. The needle was kept in the subcutis for 10 seconds after the injection to secure deposition of compound. […] The co-formulation was administered as one injection. Study was performed as a cross over study with adequate wash out between dosings.
Blood was sampled at predefined time points for up till 15 days post dosing to adequately cover the full plasma concentration-time profile of the mimylin derivative. Blood samples were drawn from a central venous catheter to jugularis made through the catheter which was afterwards flushed with 10 ml 0.9% NaCl.
For each blood sampling time point approximately 0.8 mL of whole blood was collected in a 1.5 mL EDTA coated tube, and the tube was gently turned to allowing mixing of the sample with the anticoagulant. Blood samples (for example 0.8 mL) were collected in EDTA buffer (8 mM) and then centrifuged at 4° C. and 2000 G for 10 minutes. Plasma was pipetted into Micronic tubes on dry ice, and kept at −20° C. until analysis.
Individual plasma concentration-time profiles were analysed by a non-compartmental model in Phoenix WinNonlin version 6.3 (Pharsight Inc., Mountain View, Calif., USA).
The area under the plasma concentration versus time curve (AUC, [time×concentration]) was calculated (by the Pharsight programme) after subcutaneous administration, typically until 240-288 hours post dosing, or until last measured concentration. The AUC was calculated and given as AUCinf-pred and dose normalized.
Results of co-formulation studies in LYD-pigs are summarized below

[4] = Co-formulation liraglutide + Ex #46

For `CC(C)C[C@H](NC(=O)[C@H](C)NC(=O)[C@H](C)NC(=O)[C@@H](NC(=O)[C@H](CO)NC(=O)[C@H](CC(C)C)NC(=O)[C@H](CCC(=O)O)NC(=O)[C@H](CO)NC(=O)[C@H](C)NC(=O)CC[C@H](NC(=O)CCCCCCCCCCCCCCCCC(=O)O)C(=O)O)[C@@H](C)O)C(=O)NCC(=O)N[C@@H](CCCNC(=N)N)C(=O)N[C@@H](CC(C)C)C(=O)N[C@@H](CO)C(=O)N[C@@H](C)C(=O)N[C@@H](CCC(=O)O)C(=O)N[C@@H](CC(C)C)C(=O)N[C@@H](Cc1cnc[nH]1)C(=O)N[C@@H](CCC(=O)O)C(=O)N[C@@H](CC(C)C)C(=O)N[C@@H](C)C(=O)N[C@H](C(=O)N[C@@H](CC(C)C)C(=O)N1CCC[C@H]1C(=O)N[C@@H](CCCNC(=N)N)C(=O)N[C@H](C(=O)N[C@@H](CCC(=O)O)C(=O)N[C@H](C(=O)NCC(=O)N[C@@H](CO)C(=O)NCC(=O)N[C@@H](CO)C(=O)N1CCC[C@H]1C(N)=O)[C@@H](C)O)[C@@H](C)O)[C@@H](C)O` [Ex. #46, [N-terminal(C18 diacid-gGlu), des1, 30S, 31G]mimylin] ({C18 diacid-γGlu}-ASELSTAALGRLSAELHELATLPRTETGSGSP-NH2), which Solubility ([1]; pH 3.0) is on record?
The Solubility was “≧200 μM”.

And the Solubility ([1]; pH 4.0)?
The Solubility was “≧200 μM”.

What about the Solubility ([1]; pH 5.0) of the same molecule?
Its Solubility is “≧200 μM”.

What about the Solubility ([1]; pH 6.0) of the same molecule?
Its Solubility is “≧200 μM”.

What about the Solubility ([1]; pH 6.5) of the same molecule?
Its Solubility is “≧200 μM”.

And the Solubility ([1]; pH 7.0)?
The Solubility was “≧200 μM”.

What about the Solubility ([1]; pH 7.5) of the same molecule?
Its Solubility is “≧200 μM”.

And the Solubility ([1]; pH 8.0)?
Its Solubility is “≧200 μM”.

What about the “PK mini pig iv T½” value [2] of the same molecule?
Its value is 118 h.

And the “Cmax/D” value ([3]; Co-dosing liraglutide + Ex #46)?
Its value is 5.2 kg/L.

What about the “T½ (hous)” value ([3]; Co-dosing liraglutide + Ex #46) of the same molecule?
The value was 129 hous.

What about the “Cmax/D” value [3, 4] of the same molecule?
Its value is 5.7 kg/L.

What about the “T½ (hous)” value [3, 4] of the same molecule?
The value was 133 hous.

What about the “effect on PK profile of the co-formulated peptide” value ([3]; administered as co-formulations to LYD pigs) of the same molecule?
The value was “do not affect the PK profile of liraglutide”.
